Patent US11207289B2, “Use of benzofuran lignans to induce IL-25 expression and suppress mammary tumor metastasis” (ACADEMIA SINICA, priority 2016, dated 2021)

How the values were obtained:
4T1-Luc2 cells = assay: 4T1-Luc2 mammary carcinoma tumor resection model: metastasis and survival; type: in vivo, BALB/c mice
Method: BALB/c mice were subcutaneously injected with 4T1-Luc2 cells (5×10^5/100 μl PBS/mouse) into the fourth mammary fat pad under isoflurane anesthesia. Tumor growth was monitored by measuring the tumor volume according to the formula: volume=length×(width)^2/2. After tumors were established (180-200 mm^3) on day 14, test mice were divided into different groups (8 mice/group) and subjected to different treatments. At 15 days post tumor cell implantation, primary 4T1 tumors in situ were surgically removed by a tumor resection process. For drug treatment, mice were administered with different agents, including vehicle-control (PBS), mouse IL-25 protein (10 μg/kg, ProSpec, Vineland, N.J.), Q2-3 (2, […]; […]), by intravenous injection for 3 weeks (3 injections/week) post tumor resection. For in vivo neutralization of mouse IL-25 activity, mice were treated intraperitoneally with either 100 μg anti-mouse IL-25 (IL-17E) antibody (clone 35B; Biolegend) or isotype control rat IgG (100 μg; rat, IgG1κ; Biolegend) at days 0, 3, 6, 9, 12, 15, 18 post tumor resection. To detect metastasis of human MDA-MD-231-Luc2 tumor cells, nude mice were injected subcutaneously with 5×10^5 MDA-MD-231-Luc2 cells into the mammary fat pad under isoflurane anesthesia. After tumors were established (250-350 mm^3) on day 24, test mice were divided into different groups (8 mice/group) and subjected to different treatments. At 25 days post tumor cell implantation, primary MDA-MD-231-Luc2 tumors in situ were surgically removed by a tumor resection process. […] Bioluminescence signals from the 4T1-luc2 tumor cells in test mice were analyzed using a non-invasive IVIS imaging system (Calipers, Hopkinton, Mass.) after intraperitoneal injection of 150 mg/kg D-luciferin (NanoLight technology, Pinetop, Ariz.).
Statistical analysis was performed using an unpaired, two-tailed Student's t-test. […] Differences in tumor metastasis or mouse survival rate were determined by a log-rank (Mantel-Cox) test of the Kaplan-Meier curves. […]

K562 cells = conditions: cited from earlier work
[1] = test system: myeloid derived suppressor cells (MDSCs); assay: Flow cytometry of MDSCs in lung tissue, 4T1 tumor resection model; type: in vivo, mice; conditions: 10 μg/kg, 3 weeks post tumor resection
Method: BALB/c mice were subcutaneously injected with 4T1-Luc2 cells (5×10^5/100 μl PBS/mouse) into the fourth mammary fat pad under isoflurane anesthesia. Tumor growth was monitored by measuring the tumor volume according to the formula: volume=length×(width)^2/2. After tumors were established (180-200 mm^3) on day 14, test mice were divided into different groups (8 mice/group) and subjected to different treatments. At 15 days post tumor cell implantation, primary 4T1 tumors in situ were surgically removed by a tumor resection process. For drug treatment, mice were administered with different agents, including vehicle-control (PBS), mouse IL-25 protein (10 μg/kg, ProSpec, Vineland, N.J.), Q2-3 (2, 20 or 100 μg/kg) or docetaxel (2 mg/kg; Sigma-Aldrich), by intravenous injection for 3 weeks (3 injections/week) post tumor resection. […] Bioluminescence signals from the 4T1-luc2 tumor cells in test mice were analyzed using a non-invasive IVIS imaging system (Calipers, Hopkinton, Mass.) after intraperitoneal injection of 150 mg/kg D-luciferin (NanoLight technology, Pinetop, Ariz.). […]
Suppressive effects of Q2-3 on in vivo expansion of MDSC populations were also evaluated for both the monocytic (CD11b^+Ly6C^+) and granulocytic (CD11b^+Ly6G^+) subsets of MDSCs. The populations of these two MDSC cell types in lung tissues of test mice were analyzed and compared at 3 weeks post tumor resection.

COC(=O)/C=C/c1cc(O)c2c(c1)C(C(=O)OC)C(c1ccc(O)c(O)c1)O2 (stereo not drawn) [Q2-3, methyl(E)-3-[2-(3,4-dihydroxyphenyl)-7-hydroxy-3-methoxycarbonyl-2,3-dihydro-1-benzofuran-5yl]-prop-2-enoate]
survival rate of tumor-resected mice (4T1-Luc2 cells; 4T1 tumor resection model): significantly increased
metastasis of 4T1 cells to the lung (luminescent activity) (4T1-Luc2 cells; ≥20 μg/kg i.v., 3 injections/week for 3 weeks post tumor resection): significantly suppress
anti-metastatic activity compared with doxorubicin (2 mg/kg) (4T1-Luc2 cells; ≥20 μg/kg, luciferase activity): much higher anti-metastatic activity than treatment with doxorubicin
anti-proliferation effect (K562 cells): significant anti-proliferation effect
monocytic CD11b+Ly6C+ MDSC population in lung tissue ([1]; PBS control 0.9%): 0.4%
granulocytic CD11b+Ly6G+ MDSC population in lung tissue ([1]; PBS control 42.9%): 12.5%
